Test results as given in PubChem BioAssay (NCI).
Several values for one entry are separate records, joined by “and”; a condition that tells them apart may be missing. Equal entries are not always repeated.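 Cells were grown in 96-well plates and exposed to each compound for 48 hours at five concentrations; endpoints were interpolated linearly between bracketing concentrations, or set to the highest concentration if not reached. GI50 marks 50% less growth. TGI marks complete inhibition of growth.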

How the values were obtained:
Experiment in all cases: inhibition of tumour cell growth, NCI panel, 48 h
NCI-H23 lung = tested on: NCI-H23 lung
BT-549 breast = tested on: BT-549 breast
HOP-92 NSCLC = tested on: HOP-92 NSCLC
K-562 leukemia = tested on: K-562 leukemia
PC-3 prostate = tested on: PC-3 prostate
MOLT-4 leukemia = tested on: MOLT-4 leukemia
DU-145 prostate = tested on: DU-145 prostate
COLO 205 colon = tested on: COLO 205 colon
HCT-15 colon = tested on: HCT-15 colon
UACC-257 melanoma = tested on: UACC-257 melanoma

| Structure (SMILES) | GI50 (NCI-H23 lung) [µM] | TGI (NCI-H23 lung) | GI50 (BT-549 breast) | TGI (BT-549 breast) [µM] | GI50 (HOP-92 NSCLC) | TGI (HOP-92 NSCLC) [µM] | GI50 (K-562 leukemia) [µM] | TGI (K-562 leukemia) [µM] | GI50 (PC-3 prostate) [µM] | TGI (PC-3 prostate) [µM] | GI50 (MOLT-4 leukemia) | TGI (MOLT-4 leukemia) [µM] | GI50 (DU-145 prostate) | TGI (DU-145 prostate) [µM] | GI50 (COLO 205 colon) | TGI (COLO 205 colon) [µM] | GI50 (HCT-15 colon) | TGI (HCT-15 colon) [µM] | GI50 (UACC-257 melanoma) | TGI (UACC-257 melanoma) [µM] |
| --- | --- | --- | --- | --- | --- | --- | --- | --- | --- | --- | --- | --- | --- | --- | --- | --- | --- | --- | --- | --- |
| COc1cc(C2C3=C(COC3=O)Nc3c2ccc2c3CCCC2)cc2c1OCO2 (stereo unspecified) | 0.0439 | 13.7 µM | 0.118 µM | 30.5 | 0.364 µM | 20.8 | 0.0351 | > 100 | 0.0387 | > 100 | 0.13 µM | > 42.4 | 0.0416 µM | 0.505 | 0.0322 µM | 0.0942 | 0.0432 µM | > 100 | – | – |
| Cc1[nH]nc2c1N=C(c1ccccc1F)c1cc(C(N)=O)ccc1N2 | 6.85 | > 25 µM | 2.9 µM | 12.8 | 7.12 µM | > 25 | 1.72 | > 25 | 2.26 | > 25 | 6.63 µM | 22 | 6.71 µM | > 25 | 2.3 µM | 6.61 | 4.69 µM | > 25 | 9.15 µM | > 25 |
| CC(C)CC(Nc1c(O)ccc2ccccc12)C(=O)O (stereo unspecified) | – | > 100 µM | – | 83.6 | – | – | – | > 100 | – | – | – | > 100 | – | > 100 | – | > 100 | – | > 100 | – | 50.3 |
| Cc1cc(C(=O)NC(CCC(=O)O)C(=O)O)sc1CCC1CNc2nc(N)[nH]c(=O)c2C1 (stereo unspecified) | – | > 100 µM | 0.37 µM and 2.39 µM | > 100 | 0.179 µM and 0.0802 µM | > 100 | < 0.01 | > 100 | < 0.01 | > 100 | 0.0297 µM and 0.0453 µM | > 100 | < 0.0158 µM and 0.0407 µM | > 100 | 0.0341 µM and 0.0509 µM | > 100 | 0.0502 µM and 0.33 µM | > 100 | 0.0722 µM and 0.228 µM | > 100 |
| COc1c(-c2ccc(O)c(O)c2)oc2c(O)c(O)cc(O)c2c1=O | – | > 100 µM | – | > 100 | – | > 100 | – | 46.4 | – | > 100 | – | 73.8 | – | > 100 | – | > 100 | – | > 100 | – | > 100 |
| O=S1(=O)CS(=O)(=O)OCCO1 | – | > 81.5 µM and 113 µM | 69.2 µM | 156 | > 49.7 µM | 112 | – | 423 | – | 665 | 18.4 µM | 100 | – | 178 | – | 157 | > 85.6 µM | 128 | > 63.8 µM | 153 |
| CCCCNC(=O)Oc1ccc(/C(=C(/C)Cc2ccc(OC)cc2)c2ccc(OCCN3CCCC3)cc2)cc1 | 2.26 | 5.67 µM | 1.52 µM | 2.98 | – | – | 1.57 | 5.13 | – | – | 1.98 µM | 7.72 | 2.29 µM | 5.44 | 1.83 µM | 3.57 | 1.5 µM | 3.13 | 1.88 µM | 3.44 |
